Measured values reported in patent publication US7807707B2, “Hair and/or scalp care compositions incorporating amino-oxo-indole-ylidene compounds” (priority 2005, dated 2010).

Key:
[1] = molecular target: T1, Cannabinoid Receptor 1 (CB1R) (Homo sapiens, UniProt P21554); experiment: CB1R radioligand assay on membranes from HEK293 cells over-expressing human recombinant CB1; format: binding; conditions: human recombinant CB1, [3H]CP-55,490 radioligand, n=3
T1 construct: purchased Perkin-Elmer; host or cells: HEK293
Protocol: (§1) An amino-oxo-indole-ylidene compound of formula (I) was evaluated for its ability to activate Cannabinoid Receptor 1 (CB1R) and Cannabinoid Receptor 2 (CB2R). Its C log P value were also measured.
CB1R experiments were performed using membranes from HEK293 cells over-expressing human recombinant CB1, as described by the manufacturer (Perkin-Elmer) and using [3H]CP-55,490 as the radioligand.
(§2) Data of the active compound is expressed in Ki (mM) and are means±SEM of n=3 determinations.
(§3) The value stated is an EC50 value. This is defined as the molar concentration of an agonist, which produces 50% of the maximum possible response for that agonist. The values documented are in micromolar units.

[2] = molecular target: T2, Cannabinoid Receptor 2 (CB2R) (Homo sapiens, UniProt P34972); experiment: CB2R radioligand assay on membranes from HEK293 cells over-expressing human recombinant CB2; format: binding
T2 construct: purchased Perkin-Elmer; host or cells: HEK293
Protocol: as §1
CB2R experiments were performed using membranes from HEK293 cells over-expressing human recombinant CB2, as described by the manufacturer (Perkin-Elmer), and using [3H]CP-55,495 as the radioligand.
as §2, §3

T2 sequence (P34972 whole entry): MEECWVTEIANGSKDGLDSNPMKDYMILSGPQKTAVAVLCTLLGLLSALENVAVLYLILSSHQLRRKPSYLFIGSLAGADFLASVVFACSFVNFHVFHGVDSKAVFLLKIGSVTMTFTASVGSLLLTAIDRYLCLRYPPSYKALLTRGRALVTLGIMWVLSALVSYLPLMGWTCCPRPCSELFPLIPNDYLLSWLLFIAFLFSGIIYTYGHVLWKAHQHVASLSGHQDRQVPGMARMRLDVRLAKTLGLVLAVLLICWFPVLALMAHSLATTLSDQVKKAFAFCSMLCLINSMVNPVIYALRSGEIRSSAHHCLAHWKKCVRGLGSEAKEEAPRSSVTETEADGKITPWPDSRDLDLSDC
T1 sequence (P21554 whole entry): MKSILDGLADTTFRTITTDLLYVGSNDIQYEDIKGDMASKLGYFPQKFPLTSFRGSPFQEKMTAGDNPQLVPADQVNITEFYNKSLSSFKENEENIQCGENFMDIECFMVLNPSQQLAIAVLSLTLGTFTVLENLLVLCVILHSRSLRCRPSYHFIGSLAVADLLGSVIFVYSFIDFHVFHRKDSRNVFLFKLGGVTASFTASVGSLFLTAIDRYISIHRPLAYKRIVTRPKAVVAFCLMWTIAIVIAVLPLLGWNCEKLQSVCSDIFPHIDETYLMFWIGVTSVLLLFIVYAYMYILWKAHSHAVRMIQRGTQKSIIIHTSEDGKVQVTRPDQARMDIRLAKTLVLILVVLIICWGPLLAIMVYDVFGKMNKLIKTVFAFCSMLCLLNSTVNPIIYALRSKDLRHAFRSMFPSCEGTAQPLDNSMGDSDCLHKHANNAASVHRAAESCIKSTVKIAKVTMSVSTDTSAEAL

SMILES: O=C(CNc1cccc2ccccc12)N/N=C1\C(=O)N(CCc2ccccc2)c2ccccc21 [Example 1, (naphthalen-1-ylamino)-acetic acid (2-oxo-1-phenethyl-1,2-dihydro-indol-3-ylidene)-hydrazide]
- EC50 [1]: > 25 µM
- EC50 [2]: 21.1 µM
